Assay results: patent US20220096437A1, “ANTIBACTERIAL COMPOUNDS” (The University of Birmingham, priority 2019, published 2022)
Converted amounts (≈) assume the structure as drawn. Read-outs that look alike come from different tables or passages of the source.

System: Mycobacterium tuberculosis H37Rv
Assay: Susceptibility testing against Mycobacterium tuberculosis H37Rv (broth microdilution, resazurin readout)
Assay type: cell-based
Details: M. tuberculosis H37Rv, 7 days at 37° C., resazurin fluorescence; for MIC99: Gomperz fit, read-out: MIC99 (μM) M. tub H37Rv; for MIC50: read-out: MIC50 (μM) M. tub H37Rv
[1] = Mycobacterium tuberculosis, 168 h

| SMILES | MIC99 [1] | MIC50 [1] | MIC50 |
| --- | --- | --- | --- |
| Brc1cc(Br)cc(C2CC(CNC3CC3)N2Cc2ccccc2Br)c1 (racemic) [Azet 1, rac-N-(((2,4-cis)-1-(2-bromobenzyl)-4-(3,5-dibromophenyl)azetidin-2-yl)methyl)cyclopropana-mine] | 51.8 µM (≈ 27.4 µg/mL) | 11.8 µM (≈ 6.24 µg/mL) |  |
| CN(C)CC1CC(c2cc(Br)cc(Br)c2)N1Cc1ccccc1Br (racemic) [Azet 2, rac-1-((2,4-cis)-1-(2-bromobenzyl)-4-(3,5-dibromophenyl)azetidin-2-yl)-N,N-dimethylmethanamine] |  | 5.6 µM (≈ 2.9 µg/mL) |  |
| C#CCNCC1CC(c2cc(Br)cc(Br)c2)N1Cc1ccccc1Br (racemic) [Azet 3, rac-N-(((2,4-cis)-1-(2-bromobenzyl)-4-(3,5-dibromophenyl)azetidin-2-yl)methyl)prop-2-yn-1-amine] |  | 22.8 µM (≈ 12 µg/mL) |  |
| CN(C)CC1CC(c2cc(C(F)(F)F)cc(C(F)(F)F)c2)N1Cc1ccccc1Br (racemic) [Azet 4, rac-1-((2,4-cis)-4-(3,5-bis(trifluoromethyl)phenyl)-1-(2-bromobenzyl)azetidin-2-yl)-N,N-dimethylmethanamine] | 7.3 µM (≈ 3.62 µg/mL) | 6.59 µM (≈ 3.26 µg/mL) |  |
| CN(C)CC1CC(c2ccc(OC(F)(F)F)cc2)N1Cc1ccccc1OC(F)(F)F (racemic) [Azet 5, rac-N,N-dimethyl-1-((2,4- cis)-1-(2-(trifluoromethoxy)benzyl)-4-(4-(trifluoromethoxy)phenyl)azetidin-2-yl)methanamine] | 12 µM (≈ 5.38 µg/mL) | 9.9 µM (≈ 4.44 µg/mL) |  |
| FC(F)(F)Oc1ccc(C2CC(CNC3CC3)N2Cc2ccccc2OC(F)(F)F)cc1 (racemic) [Azet 18, rac-N-(((2,4-cis)-1-(2-(trifluoromethoxy)benzyl)-4-(4-(trifluoromethoxy)phenyl)azetidin-2-yl)methyl)cyclopropana-mine] | 13 µM (≈ 5.99 µg/mL) | 11.9 µM (≈ 5.48 µg/mL) |  |
| CNCC1CC(c2ccc(OC(F)(F)F)cc2)N1Cc1ccccc1OC(F)(F)F (racemic) [Azet 19, rac-N-methyl-1-((2,4-cis)-1-(2-(trifluoromethoxy)benzyl) (trifluoromethoxy)phenyl) azetidin-2-yl)methanamine] | 7.2 µM (≈ 3.13 µg/mL) | 4.5 µM (≈ 1.95 µg/mL) |  |
| COCCNCC1CC(c2ccc(OC(F)(F)F)cc2)N1Cc1ccccc1OC(F)(F)F (racemic) [Azet 20, rac-2-methoxy-N-(((2,4- cis)-1-(2-(trifluoromethoxy)benzyl)-4-(4-(trifluoromethoxy)phenyl)azetidin-2-yl)methyl)ethan-1-amine] | 18 µM (≈ 8.61 µg/mL) | 11 µM (≈ 5.26 µg/mL) |  |
| CC(C)NCC1CC(c2ccc(OC(F)(F)F)cc2)N1Cc1ccccc1Br (racemic) [Azet 29, rac-N-(((2,4-cis)-1-(2-bromobenzyl)-4-(4-(trifluoromethoxy)phenyl)azetidin-2-yl)methyl)propan-2-amine] | 24.5 µM (≈ 11.2 µg/mL) | 9.85 µM (≈ 4.5 µg/mL) |  |
| CC(C)NCC1CC(c2ccccc2)N1Cc1ccccc1OC(F)(F)F (racemic) [Azet 30, rac-N-(((2,4-cis)-4-phenyl-1-(2-(trifluoromethoxy)benzyl)azetidin-2-yl)methyl)propan-2-amine] | 48.9 µM (≈ 18.5 µg/mL) | 21.1 µM (≈ 7.99 µg/mL) |  |
| CC(C)NCC1CC(c2ccc(OC(F)(F)F)cc2)N1Cc1ccccc1OC(F)(F)F (racemic) [Azet 31, rac-N-(((2,4-cis)-1-(2-(trifluoromethoxy)benzyl)-4-(4-(trifluoromethoxy)phenyl)azetidin-2-yl)methyl)propan-2-amine] | 26.4 µM (≈ 12.2 µg/mL) | 8.89 µM (≈ 4.11 µg/mL) |  |
| Clc1cc(Cl)cc(C2CC(CN3CCCC3)N2Cc2ccccc2Br)c1 (racemic) [Azet 32, rac-1-(((2,4-cis)-1-(2-bromobenzyl)-4-(3,5-dichlorophenyl)azetidin-2-yl)methyl)pyrrolidine] | 9.21 µM (≈ 4.18 µg/mL) | 7.58 µM (≈ 3.44 µg/mL) |  |
| FC(F)(F)c1cc(C2CC(CN3CCCC3)N2Cc2ccccc2Br)cc(C(F)(F)F)c1 (racemic) [Azet 33, rac-1-(((2,4-cis)-4-(3,5-bis(trifluoromethyl)phenyl)-1-(2-bromobenzyl)azetidin-2-yl)methyl)pyrrolidine] | 3.29 µM (≈ 1.72 µg/mL) | 6.93 µM (≈ 3.61 µg/mL) |  |
| Brc1cc(Br)cc(C2CC(CN3CCCC3)N2Cc2ccccc2Br)c1 (racemic) [Azet 34, rac-1-(((2,4-cis)-1-(2-bromobenzyl)-4-(3,5-dibromophenyl)azetidin-2-yl)methyl)pyrrolidine] | 3.26 µM (≈ 1.77 µg/mL) | 7.03 µM (≈ 3.82 µg/mL) |  |
| FC(F)(F)Oc1ccc(C2CC(CN3CCC(c4ccc(C(F)(F)F)cc4)CC3)N2Cc2ccccc2Br)cc1 (racemic) [Azet 39, rac-1-(((2,4-cis)-1-(2-bromobenzyl)-4-(4-(trifluoromethoxy)phenyl)azetidin-2-yl)methyl)-4-(4-(trifluoromethyl)phenyl)pi-peridine] | 90.9 µM (≈ 57 µg/mL) | 85 µM (≈ 53.3 µg/mL) |  |
| COc1ccc(C2CC(CN3CCCC3)N2Cc2ccccc2Br)cc1 (racemic) [Azet 42, rac-1-(((2,4-cis)-1-(2-bromobenzyl)-4-(4-methoxyphenyl)azetidin-2-yl)methyl)pyrrolidine] | 42.6 µM (≈ 17.7 µg/mL) | 20.8 µM (≈ 8.64 µg/mL) |  |
| COc1ccccc1CN1C(CN2CCCC2)CC1c1ccc(Br)cc1 (racemic) [Azet 48, rac-1-(((2,4-cis)-4-(4-bromophenyl)-1-(2-methoxybenzyl)azetidin-2-yl)methyl)pyrrolidine] |  | 20.3 µM (≈ 8.43 µg/mL) |  |
| FC(F)(F)c1ccccc1CN1C(CN2CCCC2)CC1c1ccccc1C(F)(F)F (racemic) [Azet 49, rac-1-(((2,4-cis)-1-(2-(trifluoromethyl)benzyl)-4-(2-(trifluoromethyl)phenyl)a-zetidin-2-yl)methyl)pyrrolidine] |  | 6.68 µM (≈ 2.96 µg/mL) |  |
| FC(F)(F)c1cccc(C2CC(CN3CCCC3)N2Cc2ccccc2C(F)(F)F)c1 (racemic) [Azet 50, rac-1-(((2,4-cis)-1-(2-(trifluoromethyl)benzyl)-4-(3-(trifluoromethyl)phenyl)a-zetidin-2-yl)methyl)pyrrolidine] |  | 7.04 µM (≈ 3.11 µg/mL) |  |
| FC(F)(F)c1ccc(C2CC(CN3CCCC3)N2Cc2ccccc2C(F)(F)F)cc1 (racemic) [Azet 51, rac-1-(((2,4-cis)-1-(2-(trifluoromethyl)benzyl)-4-(4-(trifluoromethyl)phenyl)a-zetidin-2-yl)methyl)pyrrolidine] |  | 8.31 µM (≈ 3.68 µg/mL) |  |
| CC(C)(C)c1ccc(C2CC(CN3CCCC3)N2Cc2ccccc2C(F)(F)F)cc1 (racemic) [Azet 52, rac-1-(((2,4-cis)-4-(4-(tert-butyl)phenyl)-1-(2-(trifluoromethyl)benzyl)a-zetidin-2-yl)methyl)pyrrolidine] |  |  | 8.62 µM (≈ 3.71 µg/mL) |
| COc1ccccc1CN1C(CN2CCCC2)CC1c1ccc(Cl)cc1 (racemic) [Azet 53, rac-1-(((2,4-cis)-4-(4-chlorophenyl)-1-(2-methoxybenzyl)azetidin-2-yl)methyl)pyrrolidine] |  | 10.3 µM (≈ 3.82 µg/mL) |  |
| COc1ccccc1CN1C(CN2CCCC2)CC1c1cccc(Cl)c1 (racemic) [Azet 54, rac-1-(((2,4-cis)-4-(3-chlorophenyl)-1-(2-methoxybenzyl)azetidin-2-yl)methyl)pyrrolidine] |  | 11.7 µM (≈ 4.34 µg/mL) |  |
| COc1ccccc1CN1C(CN2CCCC2)CC1c1ccccc1Cl (racemic) [Azet 55, rac-1-(((2,4-cis)-4-(2-chlorophenyl)-1-(2-methoxybenzyl)azetidin-2-yl)methyl)pyrrolidine] |  | 27.6 µM (≈ 10.2 µg/mL) |  |
| FC(F)(F)Oc1ccccc1CN1C(CN2CCCC2)CC1c1ccccc1OC(F)(F)F (racemic) [Azet 57, rac-1-(((2,4-cis)-1-(2-(trifluoromethoxy)benzyl) (trifluoromethoxy)phenyl)azetidin-2-yl)methyl)pyrrolidine] |  | 7.05 µM (≈ 3.34 µg/mL) |  |
| FC(F)(F)Oc1cccc(C2CC(CN3CCCC3)N2Cc2ccccc2OC(F)(F)F)c1 (racemic) [Azet 58, rac-1-(((2,4-cis)-1-(2-(trifluoromethoxy)benzyl) (trifluoromethoxy)phenyl)azetidin-2-yl)methyl)pyrrolidine] |  | 9.14 µM (≈ 4.34 µg/mL) |  |
| FC(F)(F)Oc1ccc(C2CC(CN3CCCC3)N2Cc2ccccc2OC(F)(F)F)cc1 (racemic) [Azet 59, rac-1-(((2,4-cis)-1-(2-(trifluoromethoxy)benzyl)-4-(4-(trifluoromethoxy)phenyl)azetidin-2-yl)methyl)pyrrolidine] | 6.25 µM (≈ 2.97 µg/mL) | 9.42 µM (≈ 4.47 µg/mL) |  |
| FC(F)(F)Oc1ccccc1CN1C(CN2CCCC2)CC1c1ccccc1 (racemic) [Azet 61, rac-1-(((2,4-cis)-4-phenyl-1-(2-(trifluoromethoxy)benzyl)azetidin-2-yl)methyl)pyrrolidine] |  | 17.9 µM (≈ 6.99 µg/mL) |  |
| Cc1ccccc1CN1C(CN2CCCC2)CC1c1ccccc1 (racemic) [Azet 62, rac-1-(((2,4-cis)-1-(2-methylbenzyl)-4-phenylazetidin-2-yl)methyl)pyrrolidine] |  | 37 µM (≈ 11.9 µg/mL) |  |
| FC(F)(F)c1ccccc1CN1C(CN2CCCC2)CC1c1ccccc1 (racemic) [Azet 63, rac-1-(((2,4-cis)-4-phenyl-1-(2-(trifluoromethyl)benzyl)a-zetidin-2-yl)methyl)pyrrolidine] |  | 22.7 µM (≈ 8.5 µg/mL) |  |
